Results as given in patent publication EP4538262A1, “COCRYSTALS OF VORASIDENIB” (SANDOZ AG, priority 2023, dated 2025).

What was measured:
[1] = Moisture sorption isotherm (DVS); format: physicochemical; settings: between 10 to 90 % RH, RH step of 5% RH
Protocol: The moisture sorption isotherms were recorded with a SPS-11 moisture sorption analyzer (MD Messtechnik, Ulm, Germany). […] The equilibrium condition for each step was set to a mass constancy of ±0.002 % over 40 min.

[2] = in phosphate buffer pH 6.8 + 0.003% Tween 80, 10% methanol, 25 °C

| DVS water content [1] | time of transformation to vorasidenib dihydrate [2] | SMILES |
| --- | --- | --- |
| not more than 2.0 % by weight | – | C[C@@H](Nc1nc(N[C@H](C)C(F)(F)F)nc(-c2cccc(Cl)n2)n1)C(F)(F)F.C[C@@H](Nc1nc(N[C@H](C)C(F)(F)F)nc(-c2cccc(Cl)n2)n1)C(F)(F)F.O.O=C(O)/C=C/C(=O)O [vorasidenib fumaric acid cocrystal] |
| – | ten | CC(Nc1nc(NC(C)C(F)(F)F)nc(-c2cccc(Cl)n2)n1)C(F)(F)F.O=C(O)CC(=O)O (centres unmarked) [Vorasidenib malonic acid cocrystal] |
